Results filed as inconclusive are left out. The source made the active and inactive calls.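 The calls were made as follows: active = Wild-type ribosome reporter drop at least double the humanized mutant ribosome reporter drop, growth loss under a set limit; inconclusive = no clear call, values can overlap the other calls; inactive = the rest.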
Each molecule was assayed on E. coli H69 humanized mutant ribosome RFP strain growth, fluorescence, 24 h (assay: wild-type E. coli growth inhibition versus H69 humanized strain – H69 mutant RFP, wild-type GFP, cherry-pick, dose response (AID 977621;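 also: wild-type GFP and H69 mutant RFP strains grown together 50/50 in each well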)). Conditions: test 2.

| Structure (SMILES) | AC50 [µM] |
| --- | --- |
| CCOc1cc(/C=C(\CC(=O)O)c2nc3ccccc3s2)ccc1OC | > 100 |
| COC(C(=O)Nc1ccnn1C1CCN(Cc2ccc(Cl)s2)CC1)c1ccccc1 (centres undefined) | > 100 |
| O=C1c2ccccc2CSc2c(O)cccc21 | 45.9 |
| CC1Sc2ccc(S(=O)(=O)NCc3ccccc3)cc2NC1=O (centres undefined) | > 100 |
| Cc1ccccc1Nc1c(-c2cccnc2)nc2ccc(Br)cn12 | > 100 |
| COc1ccc(C2CC(c3cccs3)=Nc3ccccc3S2)cc1 (centres undefined) | 1.44 |
| Cc1nn(C(C)(C)C)c(OC(=O)CC(C)C)c1S(=O)(=O)c1ccccc1 | 30.7 |
| O=C1c2ccccc2C(c2nnnn2C2CCCCC2)N1CCc1ccc(O)cc1 (centres undefined) | > 100 |
| COc1ccc(OC)c(N(CC(=O)Nc2ccccc2F)S(=O)(=O)c2ccccc2)c1 | 4.66 |
| O=S(=O)(NCc1ccc2c(c1)OCO2)c1ccc2c(c1)oc1ccccc12 | 52.3 |

What follows are molecules tested on E. coli wild-type GFP strain growth, fluorescence, 24 h in the same assay as above. Conditions: not given.

| Structure (SMILES) | AC50 |
| --- | --- |
| COc1cc(C(F)(F)F)c(C(=O)N(C)Cc2ccc(Cl)c(Cl)c2)cn1 | > 100 µM (inactive) |
| N#CC1CN(Cc2ccccc2)CN(Cc2ccccc2)C1 | > 100 µM (inactive) |
| N#Cc1ccccc1CSc1nc2ccc(NC(=O)c3ccccc3C(=O)O)cc2s1 | > 100 µM (inactive) |
| Cc1[nH]nc2c1C(c1ccc(F)cc1)N(Cc1ccccc1)C2=O (centres undefined) | > 100 µM (inactive) |
| CC(C)(CC(=O)O)CC(=O)NCc1c(Cl)cccc1Sc1ccc(Cl)cc1 | > 100 µM (inactive) |
| COC(=O)[C@H](Cc1c[nH]c2ccccc12)NCc1cccc(B(O)O)c1 | > 100 µM (inactive) |
| CCOC(=O)c1sc2nc(NC(=O)C(C)(C)C)sc2c1C | > 100 µM (inactive) |
| CS(=O)(=O)NCCSc1cc(C(F)(F)F)nc2ccccc12 | > 100 µM (inactive) |
| COc1ccccc1-c1ccc(SCc2cccc(F)c2)nn1 | > 100 µM (inactive) |
| Cc1c(C(=O)N(Cc2ccc(F)cc2)C2CCS(=O)(=O)C2)oc2ccccc12 (centres undefined) | > 100 µM (inactive) |
| O=C(O)CC1(CC(=O)NCc2ccc(-c3cccs3)cc2)CCCCC1 | > 100 µM (inactive) |
| O=C(Nc1cccnc1)c1ccc([N+](=O)[O-])o1 | > 100 µM (inactive) |
| CSc1ccccc1NC(=O)CN(C)CC(=O)c1c(C)[nH]c2ccccc12 | > 100 µM (inactive) |
| Cc1ccc(-n2nnnc2-c2ccccc2Br)cc1 | > 100 µM (inactive) |
| Cc1c(Cc2ccccc2)sc(NC(=O)C(C)(C)C)c1C(N)=O | > 100 µM (inactive) |
| O=C(c1cc(COc2ccc(F)cc2F)on1)N1CCCC(c2ccccc2)C1 (centres undefined) | > 100 µM (inactive) |
| Cc1ccc(C2NC(=O)c3[nH]nc(-c4ccccc4)c32)cc1 (centres undefined) | > 100 µM (inactive) |
| Nc1c(C(=O)NCCN2CCOCC2)c2nc3ccccc3nc2n1Cc1ccccc1 | > 100 µM (inactive) |
| O=C(c1ccc2c(c1)CCN2S(=O)(=O)c1ccccc1)N1CCN(c2ccccc2)CC1 | > 100 µM (inactive) |
| O=C(COC(=O)C12CC3CC(CC(O)(C3)C1)C2)NCCc1ccc(Cl)cc1 | > 100 µM (inactive) |
| O=C(NCc1cccnc1)c1ccc(COc2ccc3c(c2)CCC3)o1 | > 100 µM (inactive) |
| CCCC(=O)N(CCc1ccc(OC)cc1)Cc1nc2ccccc2c(=O)[nH]1 | > 100 µM (inactive) |
| CN1CCN(c2nc(Nc3ccc(O)cc3)nc3ccccc23)CC1 | > 100 µM (inactive) |
| Cc1cccc(OCCC(=O)N(C)CC(=O)Nc2cccc3ccccc23)c1 | > 100 µM (inactive) |
| Cc1cc(C)c(OCC(=O)OCC(=O)N2CCc3ccccc3C2)c(C)c1 | > 100 µM (inactive) |
| O=C(NCc1cccnc1)c1ccc(COc2ccccc2Br)o1 | > 100 µM (inactive) |
| C[C@@H]1CN([C@@H](C)CO)C(=O)c2cccc(NC(=O)Nc3ccccc3)c2O[C@@H]1CN(C)S(=O)(=O)c1ccc(Cl)cc1 | > 100 µM (inactive) |
| COc1ccccc1-c1cc2nc(NCCc3ccncc3)ccn2n1 | > 100 µM (inactive) |

Same assay, conditions: E. coli mixed culture, 24 h; measured here: total growth OD600, test 2

| Structure (SMILES) | AC50 [µM] |
| --- | --- |
| COc1cc(C(F)(F)F)c(C(=O)N(C)Cc2ccc(Cl)c(Cl)c2)cn1 | 44.6 |
| COC(=O)[C@H](Cc1c[nH]c2ccccc12)NCc1cccc(B(O)O)c1 | > 100 |
| CCOC(=O)c1sc2nc(NC(=O)C(C)(C)C)sc2c1C | 38.9 |
| CS(=O)(=O)NCCSc1cc(C(F)(F)F)nc2ccccc12 | 30.4 |
| COc1ccccc1-c1ccc(SCc2cccc(F)c2)nn1 | 20.3 |
| O=C(Nc1ccc(Cl)cn1)c1cc2c(s1)-c1ccccc1OC2 | > 100 |
| CCOCCCNC(=O)C(NC(=O)c1ccccc1O)c1ccc(C)cc1 (centres undefined) | > 100 |
| C[C@@H]1CN([C@@H](C)CO)C(=O)c2cc(NS(=O)(=O)c3ccccc3)ccc2O[C@@H]1CN(C)Cc1ccc(C(=O)Nc2ccccc2N)cc1 | 50.6 |
| CSc1ccccc1NC(=O)CN(C)CC(=O)c1c(C)[nH]c2ccccc12 | 46.2 |
| Cc1noc(C)c1NC(=O)Nc1ccc2c(c1)C(=O)N([C@H](C)CO)C[C@H](C)[C@H](CN(C)C(=O)Nc1ccc3c(c1)OCO3)OCCCC[C@H](C)O2 | > 100 |
| Cc1ccc(-n2nnnc2-c2ccccc2Br)cc1 | 46 |
| Cc1c(Cc2ccccc2)sc(NC(=O)C(C)(C)C)c1C(N)=O | 50.6 |
| O=C(c1cc(COc2ccc(F)cc2F)on1)N1CCCC(c2ccccc2)C1 (centres undefined) | 14.5 |
| Cc1ccc(C2NC(=O)c3[nH]nc(-c4ccccc4)c32)cc1 (centres undefined) | 42.3 |
| O=C(c1ccc2c(c1)CCN2S(=O)(=O)c1ccccc1)N1CCN(c2ccccc2)CC1 | > 100 |
| Cc1cc(C)c(OCC(=O)OCC(=O)N2CCc3ccccc3C2)c(C)c1 | > 100 |
| CCc1ccc(CN2CCCC(CNS(=O)(=O)c3ccc(OC)cc3)C2)cc1 (centres undefined) | > 100 |
| O=C(NCc1cccnc1)c1ccc(COc2ccccc2Br)o1 | 46.2 |
| C[C@@H]1CN([C@@H](C)CO)C(=O)c2cccc(NC(=O)Nc3ccccc3)c2O[C@@H]1CN(C)S(=O)(=O)c1ccc(Cl)cc1 | 37.7 |
| COc1ccc(OC)c(NC(=O)COc2ccc(S(=O)(=O)NC(C)C)cc2)c1 | > 100 |

Same assay, conditions: measured here: total growth OD600, test 2

| Structure (SMILES) | AC50 [µM] |
| --- | --- |
| Nc1c(C(=O)NCCN2CCOCC2)c2nc3ccccc3nc2n1Cc1ccccc1 | > 100 |
